Test results reported in patent US12351556B2, “Pyridin-2(1H)one derivatives, their preparation and their use for the treatment of pain” (INSTITUT NATIONAL DE LA SANTE ET DE LA RECHERCHE MEDICALE …, priority 2019, dated 2025).
“Also recorded” adds a separate entry of the source. Like-named read-outs stand apart in the source and are kept apart here.

Key:
[1] = target: p38α MAPK (Homo sapiens (Human), UniProt Q16539); experiment: p38 alpha IC50; assay type: biochemical
Procedure: (§1) Studies were undertaken to identify the possible biological target(s) of compound 69. The activation in neurons of PK such as PKCγ, ERK or p38 MAPK can contribute to pain hypersensitivity. Therefore, it was decided to screen compound 69 toward a panel of 50 PKs that provide a representative sampling of the human kinome (FIG. 3, Table 3) (Biochem. J. 2007, 408, 297-315). In this panel, p38α MAPK was identified as the privileged target, with 19% of kinase residual activity at 10 μM compound concentration.
The selectivity of compound 69 was evaluated at 1 μM toward another panel containing all four p38 MAPK isoforms, ERK1, ERK2 as well as other protein kinases close to p38α MAPK in the kinome phylogenetic tree (FIG. 4, Table 4). […] Its IC50 toward p38α MAPK was determined, showing a value in the micromolar range (IC50=3.0±0.1 μM).

[2] = test system: inflammatory MA (face CFA model); experiment: Face Complete Freund's Adjuvant (CFA) model of inflammatory mechanical allodynia; assay type: in vivo; conditions: rat
Procedure: FIG. 1 illustrates the results obtained by the intracisternal application of compounds 19-24, 66-72 and 74-82. These compounds prevent face MA in a rat model of inflammatory pain (Complete Freund's Adjuvant (CFA), n=4-6 rats for each compound). For this assay, compounds (5 μL at 100 μM) or control vehicle were intra-cisternally administred 30 min before CFA injection.
Face Complete Freund's Adjuvant (CFA) Model.
CFA (Becton Dickinson) was dissolved in saline solution containing Tween 80 and paraffin oil and conserved at 4° C. For the behavioral tests, animals were briefly (<2 min) anesthetized using a mask with 2% isoflurane and received a subcutaneous injection of 25 μL of CFA (2.5 mg/kg) solution into the right vibrissa pad using a 27 Ga needle coupled to a 25 μL Hamilton syringe, as described previously. After injection, animals were awakened from anesthesia and placed in the behavioral experimental room, followed by a 120 min mechanical testing period.
Intracisternal Injection:
For investigating the effects of synthetized compounds upon mechanical allodynia, animals were briefly (<2 min) anesthetized using a mask with 2% isoflurane and received an intracisternal injection of 5 μL of compound (100 μM) or vehicle alone (saline+1% DMSO) using a 10 μL Hamilton syringe. After recovery (<2 min), rats were placed in an observation field (0.6×0.6 m square) under red light for a period test. 6-g von Frey filament was gently applied every 15 or 30 min onto the orofacial region by a first experimenter. The behavioral responses were observed and quantified by a second experimenter (see below).
Behavioral Responses to Normally Innocuous (6-g Von Frey Filament) Mechanical Stimulation.
The behavioral responses procedure was previously developed by Vos et al. 1994. A rat's response to mechanical stimulation consisted of one or more of the following elements: (1) detection, rat turn head toward stimulus; (2) withdrawal reaction, rat pull paw away or turn head away or pull it briskly backward when stimulation is applied (a withdrawal reaction is assumed to include a detection element preceding the head withdrawal and therefore consists of two responses elements); (3) escape/attack, rats avoid further contact with the stimulus, either passively by moving their bodies away from the stimulus, or actively by attacking the tip of the […]; (4) asymmetric grooming, rats display an uninterrupted series of at least three wash strokes directed to the stimulated area.
The in vivo efficacy of some compounds was evaluated on a rat model of inflammatory MA (face CFA model; Alba-Delgado et al J. Neurosci. 2018, 38, 10489-10504) (FIG. 1). After receiving a subcutaneous injection of 25 μL of CFA (2.5 mg/kg) into the right vibrissa pad, rats develop a MA that lasts days. […] In this model of inflammatory MA, MA was suppressed in compound 69 treated rats, in comparison to animals treated with vehicle (FIG. 2A).

[3] = test system: inflammatory MA (face CFA model); experiment: as above; assay type: in vivo; conditions: rat, 10 mg/kg intra-peritoneally, 30 min before CFA
[4] = target: S6K1 (Homo sapiens (Human), UniProt P23443); experiment: ICKP protein kinase panel screening; assay type: biochemical; conditions: duplicate assays, read-out: mean % residual activity
Procedure: (§2) FIG. 3 illustrates the human kinome. Compound 69 was evaluated at the International Center For Kinase Profiling (ICKP, Dundee, Scotland) toward a panel of 50 protein kinases that provide a representative sampling of the human kinome. The results were expressed as the mean percentage of residual activity at 10 μM concentration (duplicate assays). Small disks: ≥65%, larger disk: 19%. The black square indicates the kinome region containing protein kinases evaluated in a second screening (FIG. 4, Table 4). The tree was generated using the Kinome Render software, and the illustration reproduced courtesy of Cell Signaling Technology, Inc. (www.cellsignal.com) Chartier et al PeerJ 2013, 1:e126.
(§3) Results are expressed as the mean percentage of residual activity at 10 μM (Table 3) or 1 μM (Table 4). They are illustrated on FIGS. 3 and 4.
as §1

[5] = target: PLK1 (Homo sapiens (Human), UniProt P53350); experiment: ICKP protein kinase panel screening; assay type: biochemical; conditions: duplicate assays, read-out: mean % residual activity
Sequence of PLK1 (P53350 whole entry): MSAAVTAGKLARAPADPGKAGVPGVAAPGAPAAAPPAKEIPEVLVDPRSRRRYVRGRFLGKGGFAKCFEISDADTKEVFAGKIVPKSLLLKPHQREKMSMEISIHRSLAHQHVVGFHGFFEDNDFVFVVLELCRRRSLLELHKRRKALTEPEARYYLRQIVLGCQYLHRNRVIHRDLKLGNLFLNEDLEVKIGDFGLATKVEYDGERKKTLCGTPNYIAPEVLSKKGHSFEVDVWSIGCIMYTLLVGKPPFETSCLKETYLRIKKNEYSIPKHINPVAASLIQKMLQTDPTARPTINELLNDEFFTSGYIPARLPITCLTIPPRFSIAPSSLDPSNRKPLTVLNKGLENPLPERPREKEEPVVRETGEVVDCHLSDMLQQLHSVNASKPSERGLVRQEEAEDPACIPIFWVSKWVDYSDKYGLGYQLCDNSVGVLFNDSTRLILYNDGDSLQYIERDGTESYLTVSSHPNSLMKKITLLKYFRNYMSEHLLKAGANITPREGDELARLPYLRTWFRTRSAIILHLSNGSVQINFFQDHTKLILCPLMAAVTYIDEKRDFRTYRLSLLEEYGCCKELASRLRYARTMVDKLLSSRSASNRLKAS
Procedure: as §2, §3, §1

[6] = target: PKBa (Homo sapiens (Human), UniProt P31749); experiment: ICKP protein kinase panel screening; assay type: biochemical; conditions: duplicate assays, read-out: mean % residual activity
Procedure: as §2, §3, §1

[7] = target: SRPK1 (Homo sapiens (Human), UniProt Q96SB4); experiment: ICKP protein kinase panel screening; assay type: biochemical; conditions: duplicate assays, read-out: mean % residual activity
Sequence of SRPK1 (Q96SB4 whole entry): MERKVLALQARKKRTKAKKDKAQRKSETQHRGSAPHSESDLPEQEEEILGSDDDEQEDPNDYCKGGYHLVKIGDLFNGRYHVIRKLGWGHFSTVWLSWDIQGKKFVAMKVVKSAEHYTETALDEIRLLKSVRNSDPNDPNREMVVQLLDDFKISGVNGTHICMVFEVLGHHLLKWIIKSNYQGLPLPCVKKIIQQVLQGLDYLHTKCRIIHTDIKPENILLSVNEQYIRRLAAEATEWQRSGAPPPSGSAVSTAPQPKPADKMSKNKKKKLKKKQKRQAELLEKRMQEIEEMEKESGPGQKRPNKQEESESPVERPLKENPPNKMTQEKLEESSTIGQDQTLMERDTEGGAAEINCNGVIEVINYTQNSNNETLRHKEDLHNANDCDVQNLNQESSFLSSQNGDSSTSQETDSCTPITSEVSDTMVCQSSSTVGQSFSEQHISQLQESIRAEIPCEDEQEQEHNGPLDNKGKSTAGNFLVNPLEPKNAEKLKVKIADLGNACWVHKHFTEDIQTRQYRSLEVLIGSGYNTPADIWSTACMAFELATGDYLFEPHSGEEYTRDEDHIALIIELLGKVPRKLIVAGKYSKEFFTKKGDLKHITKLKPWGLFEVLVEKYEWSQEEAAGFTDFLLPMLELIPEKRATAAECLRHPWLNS
Procedure: as §2, §3, §1

[8] = target: PAK4 (Homo sapiens (Human), UniProt O96013); experiment: ICKP protein kinase panel screening; assay type: biochemical; conditions: duplicate assays, read-out: mean % residual activity
Sequence of PAK4 (O96013 whole entry): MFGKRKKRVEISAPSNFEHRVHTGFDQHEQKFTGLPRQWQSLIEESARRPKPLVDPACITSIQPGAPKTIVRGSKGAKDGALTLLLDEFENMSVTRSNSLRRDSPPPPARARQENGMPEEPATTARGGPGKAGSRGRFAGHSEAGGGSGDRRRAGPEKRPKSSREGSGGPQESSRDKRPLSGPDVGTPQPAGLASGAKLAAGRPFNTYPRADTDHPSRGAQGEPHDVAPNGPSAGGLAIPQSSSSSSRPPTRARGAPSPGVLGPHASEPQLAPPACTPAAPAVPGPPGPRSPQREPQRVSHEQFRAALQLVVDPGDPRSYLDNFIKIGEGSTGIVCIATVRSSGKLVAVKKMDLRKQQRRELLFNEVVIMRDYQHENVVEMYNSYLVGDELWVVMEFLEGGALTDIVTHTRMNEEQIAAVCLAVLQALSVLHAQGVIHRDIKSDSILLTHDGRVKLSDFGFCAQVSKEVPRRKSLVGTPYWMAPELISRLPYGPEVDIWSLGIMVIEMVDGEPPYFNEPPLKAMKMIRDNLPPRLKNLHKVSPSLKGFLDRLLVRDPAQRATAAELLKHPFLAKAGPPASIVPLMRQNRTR
Procedure: as §2, §3, §1

[9] = target: PKD1 (Homo sapiens (Human), UniProt Q15139); experiment: ICKP protein kinase panel screening; assay type: biochemical; conditions: duplicate assays, read-out: mean % residual activity
Sequence of PKD1 (Q15139 whole entry): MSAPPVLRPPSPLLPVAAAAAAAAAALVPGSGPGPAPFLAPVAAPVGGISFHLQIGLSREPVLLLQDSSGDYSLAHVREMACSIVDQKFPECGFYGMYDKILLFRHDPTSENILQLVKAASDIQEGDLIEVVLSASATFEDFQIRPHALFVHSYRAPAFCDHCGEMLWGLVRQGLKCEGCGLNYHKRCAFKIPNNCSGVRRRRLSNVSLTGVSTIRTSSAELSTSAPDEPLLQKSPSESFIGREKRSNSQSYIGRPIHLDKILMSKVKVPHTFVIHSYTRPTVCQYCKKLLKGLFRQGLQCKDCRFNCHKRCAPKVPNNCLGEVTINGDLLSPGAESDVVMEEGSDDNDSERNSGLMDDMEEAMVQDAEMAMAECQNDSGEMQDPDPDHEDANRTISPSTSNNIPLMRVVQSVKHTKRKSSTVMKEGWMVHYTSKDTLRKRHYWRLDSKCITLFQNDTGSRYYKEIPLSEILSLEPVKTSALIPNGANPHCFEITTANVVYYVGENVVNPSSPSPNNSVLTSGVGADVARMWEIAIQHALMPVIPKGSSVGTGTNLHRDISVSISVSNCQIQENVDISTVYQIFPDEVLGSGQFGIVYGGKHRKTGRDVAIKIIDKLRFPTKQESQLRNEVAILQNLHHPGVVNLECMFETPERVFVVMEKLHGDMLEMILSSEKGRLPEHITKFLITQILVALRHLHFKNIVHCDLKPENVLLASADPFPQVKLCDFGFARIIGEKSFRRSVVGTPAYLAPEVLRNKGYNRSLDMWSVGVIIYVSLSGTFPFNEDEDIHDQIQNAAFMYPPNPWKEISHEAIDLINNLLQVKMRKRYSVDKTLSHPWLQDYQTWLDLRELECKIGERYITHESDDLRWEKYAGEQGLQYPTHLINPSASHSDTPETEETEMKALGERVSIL
Procedure: as §2, §3, §1

[10] = target: EPH-A2 (Homo sapiens (Human), UniProt P29317); experiment: ICKP protein kinase panel screening; assay type: biochemical; conditions: duplicate assays, read-out: mean % residual activity
Procedure: as §2, §3, §1

[11] = target: DYRK1A (Homo sapiens (Human), UniProt Q13627); experiment: ICKP protein kinase panel screening; assay type: biochemical; conditions: duplicate assays, read-out: mean % residual activity
Procedure: as §2, §3, §1

[12] = target: TBK1 (Homo sapiens (Human), UniProt Q9UHD2); experiment: ICKP protein kinase panel screening; assay type: biochemical; conditions: duplicate assays, read-out: mean % residual activity
Sequence of TBK1 (Q9UHD2 whole entry): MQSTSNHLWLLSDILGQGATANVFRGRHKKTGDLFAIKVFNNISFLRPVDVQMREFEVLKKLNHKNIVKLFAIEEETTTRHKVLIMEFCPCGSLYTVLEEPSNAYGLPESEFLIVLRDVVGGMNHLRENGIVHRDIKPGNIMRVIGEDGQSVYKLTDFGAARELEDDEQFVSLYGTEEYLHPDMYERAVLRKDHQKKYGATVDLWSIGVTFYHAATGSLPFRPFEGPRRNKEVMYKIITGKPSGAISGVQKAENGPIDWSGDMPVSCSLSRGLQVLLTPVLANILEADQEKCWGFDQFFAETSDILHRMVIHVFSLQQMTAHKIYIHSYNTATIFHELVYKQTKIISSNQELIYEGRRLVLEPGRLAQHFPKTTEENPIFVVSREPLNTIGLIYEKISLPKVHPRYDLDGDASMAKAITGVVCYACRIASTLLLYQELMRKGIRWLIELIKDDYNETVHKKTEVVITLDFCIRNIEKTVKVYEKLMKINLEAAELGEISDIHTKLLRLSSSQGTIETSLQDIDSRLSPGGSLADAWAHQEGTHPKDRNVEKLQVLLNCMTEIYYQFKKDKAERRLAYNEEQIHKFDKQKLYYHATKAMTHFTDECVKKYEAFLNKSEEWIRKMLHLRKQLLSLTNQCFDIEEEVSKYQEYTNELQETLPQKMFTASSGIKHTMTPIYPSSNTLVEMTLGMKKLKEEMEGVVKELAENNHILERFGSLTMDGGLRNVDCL
Procedure: as §2, §3, §1

[13] = target: TrkA (Homo sapiens (Human), UniProt P04629); experiment: ICKP protein kinase panel screening; assay type: biochemical; conditions: duplicate assays, read-out: mean % residual activity
Procedure: as §2, §3, §1

[14] = target: JAK3 (Homo sapiens (Human), UniProt P52333); experiment: ICKP protein kinase panel screening; assay type: biochemical; conditions: duplicate assays, read-out: mean % residual activity
Sequence of JAK3 (P52333 whole entry): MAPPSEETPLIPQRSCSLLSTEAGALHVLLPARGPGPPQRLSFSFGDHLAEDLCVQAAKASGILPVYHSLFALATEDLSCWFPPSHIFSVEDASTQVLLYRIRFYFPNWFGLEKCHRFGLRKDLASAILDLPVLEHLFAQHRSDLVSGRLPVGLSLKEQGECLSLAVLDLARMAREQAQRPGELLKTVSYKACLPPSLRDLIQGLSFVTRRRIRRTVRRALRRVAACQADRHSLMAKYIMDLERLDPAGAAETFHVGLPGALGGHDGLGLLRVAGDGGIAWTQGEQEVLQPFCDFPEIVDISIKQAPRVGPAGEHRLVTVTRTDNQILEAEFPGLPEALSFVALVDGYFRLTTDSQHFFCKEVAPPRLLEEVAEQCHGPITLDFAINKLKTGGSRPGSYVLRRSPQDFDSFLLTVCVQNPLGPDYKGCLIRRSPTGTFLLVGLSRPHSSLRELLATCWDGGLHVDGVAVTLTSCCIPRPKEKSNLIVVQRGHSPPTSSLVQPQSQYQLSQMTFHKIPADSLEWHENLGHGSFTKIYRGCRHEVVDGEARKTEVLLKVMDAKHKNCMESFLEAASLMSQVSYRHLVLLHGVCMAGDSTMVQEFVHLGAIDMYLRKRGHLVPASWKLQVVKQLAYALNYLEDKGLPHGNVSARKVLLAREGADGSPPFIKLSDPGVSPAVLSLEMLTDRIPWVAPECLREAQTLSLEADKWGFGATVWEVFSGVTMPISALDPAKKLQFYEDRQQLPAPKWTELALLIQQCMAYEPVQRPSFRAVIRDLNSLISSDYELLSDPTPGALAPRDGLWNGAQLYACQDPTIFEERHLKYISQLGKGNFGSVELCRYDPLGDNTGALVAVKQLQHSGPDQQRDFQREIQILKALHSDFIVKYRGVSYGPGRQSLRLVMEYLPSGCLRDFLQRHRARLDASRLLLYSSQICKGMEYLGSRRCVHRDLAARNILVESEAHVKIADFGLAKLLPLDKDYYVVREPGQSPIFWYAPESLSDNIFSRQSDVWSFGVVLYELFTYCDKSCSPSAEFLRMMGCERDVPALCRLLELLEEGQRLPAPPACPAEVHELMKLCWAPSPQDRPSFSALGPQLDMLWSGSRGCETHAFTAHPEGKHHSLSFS
Procedure: as §2, §3, §1

[15] = target: EF2K (Homo sapiens (Human), UniProt O00418); experiment: ICKP protein kinase panel screening; assay type: biochemical; conditions: duplicate assays, read-out: mean % residual activity
Procedure: as §2, §3, §1

Sequence of p38α MAPK (Q16539 whole entry): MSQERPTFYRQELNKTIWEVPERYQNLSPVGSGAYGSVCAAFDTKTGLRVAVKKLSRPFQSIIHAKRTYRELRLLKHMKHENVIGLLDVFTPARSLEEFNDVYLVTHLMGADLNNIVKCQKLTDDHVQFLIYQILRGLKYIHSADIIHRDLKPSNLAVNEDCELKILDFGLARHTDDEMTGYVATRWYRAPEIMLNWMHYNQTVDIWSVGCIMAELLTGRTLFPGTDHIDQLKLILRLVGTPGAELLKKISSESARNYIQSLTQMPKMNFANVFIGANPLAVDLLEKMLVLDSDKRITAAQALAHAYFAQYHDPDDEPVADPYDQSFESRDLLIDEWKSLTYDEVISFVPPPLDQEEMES

How did the IC50 ([1]; p38 alpha, read-out: Mean IC50) turn out when `O=c1[nH]cc(Nc2ccccc2)cc1-c1ccccc1Br` [Compound 69, 3-(2-Bromophenyl)-5-(phenylamino)pyridin-2(1H)-one] was run?
Its IC50 is 1460 nM.

And the IC50 ([1]; read-out: IC50 toward p38α MAPK)?
The IC50 was 1500 ± 700 nM.

What about the “prevention of inflammatory MA (allodynic score), compared with skepinone” value ([2]; intracisternal 5 μL at 10 μM or 100 μM, 30 min before CFA, skepinone 60 μg/rat) of the same compound?
Its value is “completely suppressed; also recorded: much more potent than skepinone”.

And the “prevention of inflammatory MA (allodynic score, 6-g von Frey filament)” value ([2]; intracisternal 5 μL at 100 μM, 30 min before CFA)?
Its value is “most active; also recorded: high activities; also recorded: potent preventing effect; also recorded: completely suppressed”.

And the “inhibition of inflammatory MA” value ([2]; intracisternal 5 μL at 100 μM, 30 min before CFA injection)?
The value was 99%.

And the “prevention of inflammatory MA (allodynic score), systemic application” value [3]?
Its value is “completely suppressed”.

And the remaining activity at 10 µM [4]?
Its remaining activity at 10 µM is 87%.

What about the remaining activity at 10 µM [5] of the same compound?
The remaining activity at 10 µM was 113%.

What about the remaining activity at 10 µM [6] of the same compound?
The remaining activity at 10 µM was 107%.

And the remaining activity at 10 µM [7]?
The remaining activity at 10 µM was 81%.

And the remaining activity at 10 µM [8]?
The remaining activity at 10 µM was 89%.

And the remaining activity at 10 µM [9]?
Its remaining activity at 10 µM is 92%.

And the remaining activity at 10 µM [10]?
Its remaining activity at 10 µM is 109%.

What about the remaining activity at 10 µM [11] of the same compound?
Its remaining activity at 10 µM is 66%.

And the remaining activity at 10 µM [12]?
Its remaining activity at 10 µM is 89%.

What about the remaining activity at 10 µM [13] of the same compound?
Its remaining activity at 10 µM is 88%.

What about the remaining activity at 10 µM [14] of the same compound?
The remaining activity at 10 µM was 107%.

What about the remaining activity at 10 µM [15] of the same compound?
The remaining activity at 10 µM was 116%.
